Source: US20140308317A1, “Polymeric Compounds And Methods Of Making And Using The Same” (CELLCEUTIX CORPORATION, priority 2012, published 2014)
Converted amounts (≈) assume the structure as drawn.

Assays:
[1] = Cytotoxicity colorimetric (tetrazolium) assay; type: cell-based, mouse; details: mouse, NIH/3T3 cells, one hour with compound in serum-free media
Description: (§1) Cytotoxicity of the compounds was evaluated in a colorimetric assay using a transformed human liver cell line (HepG2, HB-8065) and an embryonic mouse cell line (NIH/3T3 cells, CRL-1658). This assay measures the bioreduction of a novel tetrazolium compound to a soluble formazan product by viable cells. HepG2 cells were seeded in 96 well plates at 2×10^4 cells/well in MEM medium with 10% fetal bovine serum (FBS) 24 hours prior to use. NIH/3T3 cells were seeded in 96 well plates at 2×10^4 cells/well in DMEM medium with 10% bovine calf serum (BCS) 24 hours prior to use. Cell monolayers were rinsed in serum-free media and incubated for one hour with compounds in serum-free media. After incubation, the media is replaced with serum supplemented media and live cells were measured using the Cell Titer 96 Aqueous […] Assay kit (Promega, Madison, Wis.). EC50 values were determined using a four parameter logistic equation: Y=Bottom+(Top-Bottom)/(1+10̂((LogEC50−X)*HillSlope)).
(§2) Actual results from a representative cytotoxicity assay are shown below in Table 2. Data is expressed as EC50 in μg/mL.

[2] = system: E. Coli ATCC 25922; test: Minimum Inhibitory Concentration (MIC), modified microbroth dilution; type: cell-based; details: E. coli (25922), overnight incubation (18 hours); for MIC50: Escherichia coli, ATCC25922, read-out: MIC50 E. coli
[3] = system: Staphylococcus aureus ATCC 27660; test: as above; type: cell-based; details: S. aureus (27660), overnight incubation (18 hours); for MIC50: Staphylococcus aureus, ATCC27660, read-out: MIC50 S. aureus
[4] = system: Pseudomonas aeruginosa ATCC 10145; test: as above; type: cell-based; details: P. aeruginosa (10145), overnight incubation (18 hours); for MIC50: Pseudomonas aeruginosa, ATCC10145, read-out: MIC50 P. Aeruginosa
[5] = system: Enterococcus faecalis ATCC 29212; test: as above; type: cell-based; details: E. faecalis (29212), overnight incubation (18 hours); for MIC50: Enterococcus faecalis, ATCC29212, read-out: MIC50 E. faecalis
[6] = system: Klebsiella pneumoniae ATCC 13883; test: as above; type: cell-based; details: K. pneumoniae (13883), overnight incubation (18 hours); for MIC50: Klebsiella pneumoniae, ATCC13883, read-out: MIC50 K. Pnuemnoiae
[7] = Cytotoxicity colorimetric (tetrazolium) assay; type: cell-based, human; details: human, HepG2 cells, one hour with compound in serum-free media
Description: as §1, §2

Row | Compound | EC50 at 1 h ([1]; NIH/3T3 cells (CRL-1658)) | MIC50 [2] | MIC50 [3] | MIC50 [4] | MIC50 [5] | MIC50 [6] | also measured
1 | N=C(N)NCCC#Cc1cc(-c2cc(OCCCNC(=N)N)cc(-c3cc(C#CCCNC(=N)N)cc(C(F)(F)F)c3)c2)cc(C(F)(F)F)c1 [Compound 121] | 37 µg/mL (≈ 52.9 µM) |  |  |  |  |  | 
2 | N=C(N)NCC#Cc1cc(C#CCNC(=N)N)cc(-c2cccc(-c3cc(C#CCNC(=N)N)cc(C#CCNC(=N)N)c3)c2)c1 [Compound 123] | 115 µg/mL (≈ 188 µM) | 3.13 µg/mL (≈ 5.13 µM) | 0.78 µg/mL (≈ 1.28 µM) | 6.25 µg/mL (≈ 10.2 µM) | 0.78 µg/mL (≈ 1.28 µM) | 12.5 µg/mL (≈ 20.5 µM) | 
3 | NCC#Cc1cc(C#CCN)cc(-c2cccc(-c3cc(C#CCN)cc(C#CCN)c3)c2)c1 [Compound 124] | 192 µg/mL (≈ 435 µM) | 50 µg/mL (≈ 113 µM) | 50 µg/mL (≈ 113 µM) | 50 µg/mL (≈ 113 µM) | 25 µg/mL (≈ 56.5 µM) | > 50 µg/mL | 
4 | N=C(N)Nc1ccc(-c2nnc(-c3ccc(NC(=N)N)cc3)o2)cc1 [Compound 127] |  | > 100 µg/mL | 50 µg/mL (≈ 149 µM) | > 100 µg/mL | > 100 µg/mL | > 100 µg/mL | 
5 | NCCc1cc(CCN)cc(-c2ccc(-c3cccc(-c4ccc(-c5cc(CCN)cc(CCN)c5)s4)c3)s2)c1 [Compound 138] |  | 12.5 µg/mL (≈ 22.1 µM) | 0.39 µg/mL (≈ 0.688 µM) | 12.5 µg/mL (≈ 22.1 µM) | 1.56 µg/mL (≈ 2.75 µM) | 25 µg/mL (≈ 44.1 µM) | 
6 | N=C(N)NCCc1cc(CCNC(=N)N)cc(-c2ccc(-c3cccc(-c4ccc(-c5cc(CCNC(=N)N)cc(CCNC(=N)N)c5)s4)c3)s2)c1 [Compound 139] |  | 6.25 µg/mL (≈ 8.5 µM) | 0.39 µg/mL (≈ 0.531 µM) | 12.5 µg/mL (≈ 17 µM) | 0.78 µg/mL (≈ 1.06 µM) | 3.13 µg/mL (≈ 4.26 µM) | 
7 | O=C(Nc1ccc(-c2ccc(N3CCNCC3)nc2)cc1F)Nc1ccc(-c2ccc(N3CCNCC3)nc2)cc1F [Compound 141] | 404 µg/mL (≈ 708 µM) | 6.25 µg/mL (≈ 11 µM) | 25 µg/mL (≈ 43.8 µM) | 12.5 µg/mL (≈ 21.9 µM) |  | 25 µg/mL (≈ 43.8 µM) | EC50 at 1 h ([7]; HepG2 cells (HB-8065)): 24.4 µg/mL (≈ 42.8 µM)
8 | NCCCN1c2ccc(NC(=O)Nc3ccc4c(c3)Sc3ccc(C(F)(F)F)cc3N4CCCN)cc2Sc2ccc(C(F)(F)F)cc21 [Compound 143] |  | 0.78 µg/mL (≈ 1.11 µM) | 0.78 µg/mL (≈ 1.11 µM) | 12.5 µg/mL (≈ 17.7 µM) | 1.56 µg/mL (≈ 2.21 µM) | 3.13 µg/mL (≈ 4.44 µM) | 
9 | NCCc1cc(CCN)cc(-c2cc(F)cc(-c3cc(F)cc(-c4cc(CCN)cc(CCN)c4)c3)c2)c1 [Compound 150] |  |  |  |  |  |  | EC50 at 1 h [7]: 486 µg/mL (≈ 944 µM); EC50 at 1 h [1]: 427 µg/mL (≈ 830 µM)
10 | NCCCn1cc(-c2ccc3oc4ccc(-c5cnn(CCCN)c5)cc4c3c2)cn1 [Compound 157] | 713 µg/mL (≈ 1720 µM) | 50 µg/mL (≈ 121 µM) | 6.25 µg/mL (≈ 15.1 µM) | 25 µg/mL (≈ 60.3 µM) | 25 µg/mL (≈ 60.3 µM) |  | EC50 at 1 h ([7]; HepG2 cells (HB-8065)): 461 µg/mL (≈ 1110 µM)
11 | NCCNc1ccc(-c2ccc3sc4ccc(-c5ccc(NCCN)cc5)cc4c3c2)cc1 [Compound 173] |  |  |  |  |  |  | MIC50 E. coli [2]: 6.25 µg/mL (≈ 13.8 µM); MIC50 S. aureus [3]: 0.195 µg/mL (≈ 0.431 µM); MIC50 P. Aeruginosa [4]: >50 µg/mL; MIC50 E. faecalis [5]: 1.56 µg/mL (≈ 3.45 µM); MIC50 K. Pnuemnoiae [6]: 3.13 µg/mL (≈ 6.92 µM)
12 | CCn1c2ccc(-c3cccc(N)c3)cc2c2cc(-c3cccc(N)c3)ccc21 [Compound 176] |  |  |  |  |  |  | MIC50 E. coli [2]: 12.5 µg/mL (≈ 33.1 µM); MIC50 S. aureus [3]: 0.39 µg/mL (≈ 1.03 µM); MIC50 P. Aeruginosa [4]: 12.5 µg/mL (≈ 33.1 µM); MIC50 E. faecalis [5]: >50 µg/mL; MIC50 K. Pnuemnoiae [6]: >50 µg/mL
13 | NCCCn1c2cc(-c3cccc(CN(CCN)CCN)c3)ccc2c2ccc(-c3cccc(CN(CCN)CCN)c3)cc21 [Compound 178] |  | 3.13 µg/mL (≈ 5.16 µM) | 0.39 µg/mL (≈ 0.643 µM) | 12.5 µg/mL (≈ 20.6 µM) | 12.5 µg/mL (≈ 20.6 µM) | 12.5 µg/mL (≈ 20.6 µM) | EC50 at 1 h ([7]; HepG2 cells (HB-8065)): 228 µg/mL (≈ 376 µM)
14 | N=C(N)NCCCOc1cc(OCCCNC(=N)N)cc(-c2ccc3sc4ccc(-c5cc(OCCCN)c(OCCCN)c(OCCCN)c5)cc4c3c2)c1 [Compound 185] |  |  |  |  |  |  | MIC50 E. coli [2]: 6.25 µg/mL (≈ 7.95 µM); MIC50 S. aureus [3]: 0.78 µg/mL (≈ 0.992 µM); MIC50 P. Aeruginosa [4]: 25 µg/mL (≈ 31.8 µM); MIC50 E. faecalis [5]: 1.56 µg/mL (≈ 1.98 µM); MIC50 K. Pnuemnoiae [6]: 12.5 µg/mL (≈ 15.9 µM)
15 | N=C(N)NCCCOc1cc(-c2ccc3sc4ccc(-c5cc(OCCCNC(=N)N)c(OCCCNC(=N)N)c(OCCCNC(=N)N)c5)cc4c3c2)cc(OCCCNC(=N)N)c1OCCCNC(=N)N [Compound 186] |  |  |  |  |  |  | MIC50 E. coli [2]: 12.5 µg/mL (≈ 12.2 µM); MIC50 S. aureus [3]: 0.78 µg/mL (≈ 0.759 µM); MIC50 P. Aeruginosa [4]: 12.5 µg/mL (≈ 12.2 µM); MIC50 E. faecalis [5]: 3.13 µg/mL (≈ 3.05 µM); MIC50 K. Pnuemnoiae [6]: 6.25 µg/mL (≈ 6.08 µM)
16 | NCC(CN)c1cc(Br)cc(C#Cc2cccc(C#Cc3cc(Br)cc(C(CN)CN)c3)c2)c1 [Compound 190] |  | 1.56 µg/mL (≈ 2.69 µM) | 0.78 µg/mL (≈ 1.34 µM) | 12.5 µg/mL (≈ 21.5 µM) | 0.39 µg/mL (≈ 0.672 µM) | 3.13 µg/mL (≈ 5.39 µM) | 
